Data: patent US20240358692A1, “TREATMENT OF SCLERODERMA” (Aisa Pharma, Inc., priority 2023, published 2024)

Test system: participants with SSc-RP
Experiment: SHAQ - Visual Analog Scale - Breathing Problems
Format: in vivo, human
Parameters: Visual Analog Scale-Breathing Problems, In Clinic Visit (Day 12), Mean / Visual Analog Scale-Breathing Problems, In Clinic Visit (Day 12), Median / SHAQ Visual Analogue Scale - Breathing Problems, In-Clinic Visit (Day 12), Mean / SHAQ Visual Analogue Scale - Breathing Problems, In-Clinic Visit (Day 12), Median / SHAQ Visual Analogue Scale - Breathing Problems, Change from Baseline, Median: scale not given here
Conditions: for % improvement in Breathing: median, SHAQ, mITT Part A
Excerpt: The standard, validated, patient reported outcome measures tool for SSc patients, the Scleroderma Health Assessment Questionnaire (SHAQ), will be used to assess the participant qualify of life. Details are attached in the Appendix. The participant quality of life will be scored, and a disability index calculated for each questionnaire completed by the patient at Screening and each in-clinic visit. The absolute change in participant quality of life from baseline to the end of each dosing period will be calculated similar to frequency data as before.
The standard, validated, patient reported outcome measures tool for SSc patients, the SHAQ, was collected at the time points specified in the study schedules (FIG. 2 and FIGS. 4A and 4B) to assess the participant's quality of life. The SHAQ included a Raynaud's VAS that will also be reported separately.

[1] = Any Cilnidipine (N = 17), Day 12, PP Population, Part A, Subject 01-110 excluded
[2] = Cilnidipine 10 mg, SSc patients, PP, Part A
[3] = Cilnidipine 20 mg, SSc patients, PP, Part A
[4] = Modified ITT Population-Part A, Day 12, dose cilnidipine 10 mg, tadalafil 5 mg, alone or combined as labelled
[5] = Modified ITT Population-Part A, dose cilnidipine 20 mg, tadalafil 5 mg, alone or combined as labelled
[6] = Pooled Cilnidipine (N = 8), Day 12, PP Population, Part A
[7] = pooled Cilnidipine 10 mg and Cilnidipine 10 mg + Tadalafil 5 mg
[8] = pooled Cilnidipine 20 mg and Cilnidipine 20 mg + Tadalafil 5 mg

## COCCOC(=O)C1=C(C)NC(C)=C(C(=O)OC/C=C/c2ccccc2)C1c1cccc([N+](=O)[O-])c1 (stereo not shown) [Cilnidipine]
[1]
  SHAQ Visual Analogue Scale - Breathing Problems, Change from Baseline, Mean (SD): 0.025 (1.2310)
  SHAQ Visual Analogue Scale - Breathing Problems, Change from Baseline, Median: 0.000
  SHAQ Visual Analogue Scale - Breathing Problems, In-Clinic Visit (Day 12), Mean (SD): 1.388 (2.2783)
  SHAQ Visual Analogue Scale - Breathing Problems, In-Clinic Visit (Day 12), Median: 0.300
  SHAQ Visual Analogue Scale - Breathing Problems, Percent Change from Baseline, Mean (SD): 50.12 (200.437) %
  SHAQ Visual Analogue Scale - Breathing Problems, Percent Change from Baseline, Median: −16.00%
[2]
  SHAQ VAS Breathing Problems, Change from Baseline, Max: 0.00
  SHAQ VAS Breathing Problems, Change from Baseline, Mean: −0.300
  SHAQ VAS Breathing Problems, Change from Baseline, Min: −1.20,
  SHAQ VAS Breathing Problems, Change from Baseline, Q1: −0.600,
  SHAQ VAS Breathing Problems, Change from Baseline, Q3: 0.000
  SHAQ VAS Breathing Problems, Day 12, Max: 6.30
  SHAQ VAS Breathing Problems, Day 12, Mean: 1.575
  SHAQ VAS Breathing Problems, Day 12, Min: 0.00,
  SHAQ VAS Breathing Problems, Day 12, Q1: 0.000,
  SHAQ VAS Breathing Problems, Percent Change from Baseline, Max: −16.0
  SHAQ VAS Breathing Problems, Percent Change from Baseline, Mean: −16.00
  SHAQ VAS Breathing Problems, Percent Change from Baseline, Median: −16.00
  SHAQ VAS Breathing Problems, Percent Change from Baseline, Min: −16.0,
  SHAQ VAS Breathing Problems, Percent Change from Baseline, Q1: −16.00,
  SHAQ VAS Breathing Problems, Percent Change from Baseline, Q3: −16.00
Cilnidipine 20 mg (n = 3)
  % improvement in Breathing: 67% (median)
[3]
  SHAQ VAS Breathing Problems, Change from Baseline, Max: 0.60
  SHAQ VAS Breathing Problems, Change from Baseline, Median: −0.250
  SHAQ VAS Breathing Problems, Change from Baseline, Min: −2.00,
  SHAQ VAS Breathing Problems, Change from Baseline, Q1: −1.400,
  SHAQ VAS Breathing Problems, Change from Baseline, Q3: 0.450
  SHAQ VAS Breathing Problems, Day 12, Max: 2.50
  SHAQ VAS Breathing Problems, Day 12, Mean: 0.850
  SHAQ VAS Breathing Problems, Day 12, Median: 0.450
  SHAQ VAS Breathing Problems, Day 12, Min: 0.00,
  SHAQ VAS Breathing Problems, Day 12, Q1: 0.200,
  SHAQ VAS Breathing Problems, Day 12, Q3: 1.500
  SHAQ VAS Breathing Problems, Percent Change from Baseline, Max: 150.0
  SHAQ VAS Breathing Problems, Percent Change from Baseline, Min: −100.0,
  SHAQ VAS Breathing Problems, Percent Change from Baseline, Q1: −83.33,
  SHAQ VAS Breathing Problems, Percent Change from Baseline, Q3: 90.79
[4]
  Visual Analog Scale-Breathing Problems, Change from Baseline, Mean: −0.300
  Visual Analog Scale-Breathing Problems, Change from Baseline, Median: 0.000
  Visual Analog Scale-Breathing Problems, Percent Change from Baseline, Mean: −16.00%
  Visual Analog Scale-Breathing Problems, Percent Change from Baseline, Median: −16.00%
Modified ITT Population-Part A, Day 12, dose cilnidipine 20 mg, tadalafil 5 mg, alone or combined as labelled
  Visual Analog Scale-Breathing Problems, Change from Baseline, Median: −0.800
Modified ITT Population-Part A, dose cilnidipine 10 mg, tadalafil 5 mg, alone or combined as labelled
  Visual Analog Scale-Breathing Problems, In Clinic Visit (Day 12), Median: 0.000
[5]
  Visual Analog Scale-Breathing Problems, In Clinic Visit (Day 12), Mean: 0.300
  Visual Analog Scale-Breathing Problems, In Clinic Visit (Day 12), Median: 0.400
Pooled Cilnidipine 20 mg and Cilnidipine 20 mg + Tadalafil 5 mg (N = 8), Day 12, PP Population, Part A
  SHAQ Visual Analogue Scale - Breathing Problems, In-Clinic Visit (Day 12), Mean: 1.400
[6]
  SHAQ Visual Analogue Scale - Breathing Problems, Change from Baseline, Mean (SD): −0.388 (0.8725)
  SHAQ Visual Analogue Scale - Breathing Problems, In-Clinic Visit (Day 12), Mean (SD): 1.213 (2.2229)
  SHAQ Visual Analogue Scale - Breathing Problems, In-Clinic Visit (Day 12), Median: 0.200
  SHAQ Visual Analogue Scale - Breathing Problems, Percent Change from Baseline, Mean (SD): −0.22 (97.721) %
Pooled Cilnidipine (n = 7)
  % improvement in Breathing: 41% (median)
Pooled cilnidipine (n=4)
  % Δ from baseline, VAS Breathing mean: −8.2%
[7]
  VAS Breathing Problems Change from Baseline Max: 1.00
  VAS Breathing Problems Change from Baseline Mean: −0.175
  VAS Breathing Problems Change from Baseline Median: 0.000
  VAS Breathing Problems Change from Baseline Min: −1.20
  VAS Breathing Problems Change from Baseline Q1: −0.600
  VAS Breathing Problems Change from Baseline Q3: 0.000
  VAS Breathing Problems Day 12 Max: 6.30
  VAS Breathing Problems Day 12 Median: 0.000
  VAS Breathing Problems Day 12 Min: 0.00
  VAS Breathing Problems Day 12 Q1: 0.000
  VAS Breathing Problems Day 12 Q3: 2.350
  VAS Breathing Problems Percent Change from Baseline Max: 38.5%
  VAS Breathing Problems Percent Change from Baseline Mean: −26.05%
  VAS Breathing Problems Percent Change from Baseline Median: −21.33%
  VAS Breathing Problems Percent Change from Baseline Min: −100.0%
  VAS Breathing Problems Percent Change from Baseline Q1: −63.33%
  VAS Breathing Problems Percent Change from Baseline Q3: 11.23%
[8]
  VAS Breathing Problems Change from Baseline Max: 3.70
  VAS Breathing Problems Change from Baseline Median: 0.000
  VAS Breathing Problems Change from Baseline Min: −2.00
  VAS Breathing Problems Change from Baseline Q1: −0.800
  VAS Breathing Problems Change from Baseline Q3: 0.600
  VAS Breathing Problems Day 12 Max: 6.90
  VAS Breathing Problems Day 12 Median: 0.400
  VAS Breathing Problems Day 12 Min: 0.00
  VAS Breathing Problems Day 12 Q1: 0.000
  VAS Breathing Problems Day 12 Q3: 0.700
